Measurements taken from ChEMBL document CHEMBL4673310, “Discovery of benzhydrol-oxaborole derivatives as Streptococcus pneumoniae leucyl-tRNA synthetase inhibitors” (Bioorg Med Chem, 2021).
In brackets after ≈: the same amount, converted by molar mass. Activity calls are given as the source filed them. No cut-off for these calls is given here.

Assays:
[1] = Inhibition of Streptococcus pneumoniae LeuRS using [3H]Leucine as substrate preincubated for 20 mins
[2] = system: Streptococcus pneumoniae; assay: Antibacterial activity against Streptococcus pneumoniae assessed as suppression of visible growth incubated for 24 hrs by CLSI-based broth microdilution method; assay type: functional

Row | IC50 [1] | MIC [2] | Structure (SMILES)
1 | 70.2 µM |  | CC(C)(C)OC(=O)NCCSc1ccc(C(O)c2ccc3c(c2)B(O)OC3)cc1 (centres undefined)
2 | 27.5 µM |  | OB1OCc2ccc(C(O)c3ccc(SCc4ccccc4)cc3)cc21 (centres undefined)
3 |  | 0.125 µg/mL (≈ 0.358 µM) | CC1(C)S[C@@H]2[C@H](NC(=O)[C@H](N)c3ccccc3)C(=O)N2[C@H]1C(=O)O [AMPICILLIN]
4 | 2.15 µM |  | O=C(O)CSc1ccc(C(O)c2ccc3c(c2)B(O)OC3)cc1 (centres undefined)
5 | 4.86 µM | inactive | OB1OCc2ccc(C(O)c3ccc(F)cc3)cc21 (centres undefined)
6 | 18.5 µM |  | COC(=O)c1ccc(C(O)c2ccc3c(c2)B(O)OC3)cc1 (centres undefined)
7 | 7 µM |  | CC(=O)COc1ccc(C(O)c2ccc3c(c2)B(O)OC3)cc1 (centres undefined)
8 | 67.8 µM |  | COc1ccc(C(O)c2ccc3c(c2)B(O)OC3)cc1OC (centres undefined)
9 | > 100 µM |  | C[S+]([O-])c1ccc(C(O)c2ccc3c(c2)B(O)OC3)cc1 (centres undefined)
10 | 66.8 µM |  | O=Cc1cc(C(O)c2ccc3c(c2)B(O)OC3)ccc1F (centres undefined)
11 | 50.8 µM |  | COc1cccc(C(O)c2ccc3c(c2)B(O)OC3)c1 (centres undefined)
12 | 10.2 µM |  | NC(=O)CSc1ccc(C(O)c2ccc3c(c2)B(O)OC3)cc1 (centres undefined)
13 | 11.7 µM |  | Nc1ccc(CSc2ccc(C(O)c3ccc4c(c3)B(O)OC4)cc2)cc1 (centres undefined)
14 | 3.77 µM | 16 µg/mL (≈ 51.6 µM) | C#CCSc1ccc(C(O)c2ccc3c(c2)B(O)OC3)cc1 (centres undefined)
15 | 3.63 µM |  | OB1OCc2ccc(C(O)c3ccc(SCC(F)(F)F)cc3)cc21 (centres undefined)
16 | 23.7 µM |  | OB1OCc2ccc(C(O)c3cccc(Cl)c3)cc21 (centres undefined)
17 | 23.2 µM |  | COc1ccc(C(O)c2ccc3c(c2)B(O)OC3)cc1 (centres undefined)
18 | 56.1 µM |  | OB1OCc2ccc(C(O)c3cccc(F)c3)cc21 (centres undefined)
19 | 22.7 µM |  | COC(=O)c1ccc(CSc2ccc(C(O)c3ccc4c(c3)B(O)OC4)cc2)cc1 (centres undefined)
20 | 7.63 µM |  | CCOC(=O)CC(=O)CSc1ccc(C(O)c2ccc3c(c2)B(O)OC3)cc1 (centres undefined)
21 | 25.7 µM |  | OB1OCc2ccc(C(O)c3ccc(SC(F)(F)F)cc3)cc21 (centres undefined)
22 | 11 µM |  | CC(=O)c1ccc(C(O)c2ccc3c(c2)B(O)OC3)cc1 (centres undefined)
23 | 12.8 µM |  | O=Cc1ccc(C(O)c2ccc3c(c2)B(O)OC3)cc1 (centres undefined)
24 | 2.13 µM | 10 µg/mL (≈ 41.7 µM) | OB1OCc2ccc(C(O)c3ccccc3)cc21 (centres undefined)
25 | 0.95 µM | 6 µg/mL (≈ 18.3 µM) | CC(=O)CSc1ccc(C(O)c2ccc3c(c2)B(O)OC3)cc1 (centres undefined)
26 | 23.9 µM |  | CSc1cccc(C(O)c2ccc3c(c2)B(O)OC3)c1 (centres undefined)

The remaining lines, values behind:

Row | Structure (SMILES) | IC50 [1] | MIC [2]
27 | CS(=O)(=O)c1ccc(C(O)c2ccc3c(c2)B(O)OC3)cc1 (centres undefined) | 32.5 µM | 
28 | O=[N+]([O-])c1ccc(CSc2ccc(C(O)c3ccc4c(c3)B(O)OC4)cc2)cc1 (centres undefined) | 7.16 µM | 
29 | OB1OCc2ccc(C(O)c3ccc(C(F)(F)F)cc3)cc21 (centres undefined) | 5.75 µM | 32 µg/mL (≈ 104 µM)
30 | C=CCSc1ccc(C(O)c2ccc3c(c2)B(O)OC3)cc1 (centres undefined) | 8.27 µM | 
31 | OB1OCc2ccc(C(O)c3ccc(S)cc3)cc21 (centres undefined) | 0.368 µM | 8 µg/mL (≈ 29.4 µM)
32 | COCCSc1ccc(C(O)c2ccc3c(c2)B(O)OC3)cc1 (centres undefined) | 5.76 µM | 
33 | N#Cc1ccc(C(O)c2ccc3c(c2)B(O)OC3)cc1 (centres undefined) | 8.14 µM | 
34 | COc1cc(C(O)c2ccc3c(c2)B(O)OC3)cc(OC)c1OC (centres undefined) | > 640 µM | 
35 | OB1OCc2ccc(C(O)c3ccc(-c4ccccc4)cc3)cc21 (centres undefined) | 5.48 µM | 4 µg/mL (≈ 12.7 µM)
36 | C[Si](C)(C)CSc1ccc(C(O)c2ccc3c(c2)B(O)OC3)cc1 (centres undefined) | 13.3 µM | 
37 | OB1OCc2ccc(C(O)c3ccc(SCC4CCCCC4)cc3)cc21 (centres undefined) | 8.76 µM | 
38 | C=Cc1ccc(C(O)c2ccc3c(c2)B(O)OC3)cc1 (centres undefined) | 4.63 µM | 8 µg/mL (≈ 30.1 µM)
39 | OB1OCc2ccc(C(O)c3ccc(SCc4ccncc4)cc3)cc21 (centres undefined) | 7.17 µM | 
40 | CSc1ccc(C(O)c2ccc3c(c2)B(O)OC3)cc1 (centres undefined) | 3.95 µM | 32 µg/mL (≈ 112 µM)
41 | CSc1ccccc1C(O)c1ccc2c(c1)B(O)OC2 (centres undefined) | 57.1 µM | 
42 | N#CCSc1ccc(C(O)c2ccc3c(c2)B(O)OC3)cc1 (centres undefined) | 3.89 µM | 8 µg/mL (≈ 25.7 µM)
43 | OB1OCc2ccc(C(O)c3ccc(Cl)cc3)cc21 (centres undefined) | 7.44 µM | 
44 | OB1OCc2ccc(C(O)c3ccc(N4CCOCC4)cc3)cc21 (centres undefined) | 10.3 µM | 
